According to ChEMBL document CHEMBL3046371, “Benzimidazole derivatives: synthesis, leishmanicidal effectiveness, and molecular docking studies” (Med Chem Res, 2013):
In brackets after ≈: the same amount, converted by molar mass.

test system: Leishmania major; test: Antileishmanial activity against promastigote form of Leishmania major after 72 hr by Neubauer counting analysis; assay type: functional, organism-based

SMILES | IC50 [µg/mL]
Cc1ccc(-c2nc3cc([N+](=O)[O-])ccc3[nH]2)cc1 | 0.88 (≈ 3.47 µM)
CC(C)c1ccc(-c2nc3ccccc3[nH]2)cc1 | 0.64 (≈ 2.71 µM)
CC(C)c1ccc(-c2nc3cc([N+](=O)[O-])ccc3[nH]2)cc1 | 0.8 (≈ 2.84 µM)
O=[N+]([O-])c1ccccc1-c1nc2ccccc2[nH]1 | 0.69 (≈ 2.88 µM)
c1ccc2[nH]c(-c3ccncc3)nc2c1 | 0.88 (≈ 4.51 µM)
O=[N+]([O-])c1ccc2nc(-c3ccccc3Cl)[nH]c2c1 | 0.91 (≈ 3.33 µM)
O=[N+]([O-])c1ccc2[nH]c(-c3ccc(Cl)cc3)nc2c1 | 0.64 (≈ 2.34 µM)
O=[N+]([O-])c1ccc2[nH]c(-c3cccnc3)nc2c1 | 0.79 (≈ 3.29 µM)
O=[N+]([O-])c1ccc2[nH]c(-c3ccc(F)cc3)nc2c1 | 0.77 (≈ 2.99 µM)
COc1cccc(-c2nc3cc([N+](=O)[O-])ccc3[nH]2)c1 | 0.82 (≈ 3.05 µM)
O=[N+]([O-])c1cccc(-c2nc3cc([N+](=O)[O-])ccc3[nH]2)c1 | 0.79 (≈ 2.78 µM)
c1cncc(-c2nc3ccccc3[nH]2)c1 | 0.64 (≈ 3.28 µM)
O=[N+]([O-])c1ccc2[nH]c(-c3c[nH]c4ccccc34)nc2c1 | 0.62 (≈ 2.23 µM)
c1ccc2[nH]c(-c3c[nH]c4ccccc34)nc2c1 | 0.87 (≈ 3.73 µM)
CCCCOc1ccc(-c2nc3cc([N+](=O)[O-])ccc3[nH]2)cc1 | 0.76 (≈ 2.44 µM)
O=[N+]([O-])c1ccc2[nH]c(-c3cccs3)nc2c1 | 0.82 (≈ 3.34 µM)
O=[N+]([O-])c1ccc2[nH]c(-c3ccccn3)nc2c1 | 0.73 (≈ 3.04 µM)
COc1ccc(-c2nc3cc([N+](=O)[O-])ccc3[nH]2)cc1 | 0.85 (≈ 3.16 µM)
O=[N+]([O-])c1ccc(-c2nc3ccccc3[nH]2)cc1 | 0.71 (≈ 2.97 µM)
O=[N+]([O-])c1ccc(-c2nc3cc([N+](=O)[O-])ccc3[nH]2)cc1 | 0.75 (≈ 2.64 µM)
O=[N+]([O-])c1cccc(-c2nc3ccccc3[nH]2)c1 | 0.82 (≈ 3.43 µM)
O=[N+]([O-])c1ccc2[nH]c(-c3ccc[nH]3)nc2c1 | 0.91 (≈ 3.99 µM)
CCCCOc1ccc(-c2nc3ccccc3[nH]2)cc1 | 0.65 (≈ 2.44 µM)
O=[N+]([O-])c1ccc2[nH]c(-c3ccccc3)nc2c1 | 0.8 (≈ 3.34 µM)
O=[N+]([O-])c1ccc2[nH]c(-c3ccccc3[N+](=O)[O-])nc2c1 | 0.73 (≈ 2.57 µM)

The next lines start with the values.

IC50 [µg/mL] | SMILES
0.78 (≈ 3.41 µM) | Clc1ccccc1-c1nc2ccccc2[nH]1
0.72 (≈ 3.15 µM) | Clc1ccc(-c2nc3ccccc3[nH]2)cc1
0.81 (≈ 3.61 µM) | COc1ccc(-c2nc3ccccc3[nH]2)cc1
0.68 (≈ 3.5 µM) | c1ccc(-c2nc3ccccc3[nH]2)cc1
0.84 (≈ 4.24 µM) | Cc1ccc(-c2nc3ccccc3[nH]2)o1
0.77 (≈ 3.43 µM) | COc1cccc(-c2nc3ccccc3[nH]2)c1
0.64 (≈ 2.63 µM) | Cc1ccc(-c2nc3cc([N+](=O)[O-])ccc3[nH]2)o1
0.92 (≈ 4.38 µM) | Oc1ccc(-c2nc3ccccc3[nH]2)cc1
0.62 (≈ 3.1 µM) | c1csc(-c2nc3ccccc3[nH]2)c1
0.79 (≈ 3.72 µM) | Fc1ccc(-c2nc3ccccc3[nH]2)cc1
0.79 (≈ 3.79 µM) | Cc1ccc(-c2nc3ccccc3[nH]2)cc1
0.63 (≈ 3.44 µM) | c1c[nH]c(-c2nc3ccccc3[nH]2)c1
